B1: TRAIL: tumor necrosis factor (TNF)-related apoptosis inducing ligand; binds death receptors DR4 and DR5 (protein, UniProt P50591 1-281, looked up)
Tumor necrosis factor ligand …: MAMMEVQGGPSLGQTCVLIVIFTVLLQSLCVAVTYVYFTNELKQMQDKYSKSGIACFLKEDDSYWDPNDEESMNSPCWQVKWQLRQLVRKMILRTSEETISTVQEKQQNISPLVRERGPQRVAAHITGTRGRSNTLSSPNSKNEKALGRKINSWESSRSGHSFLSNLHLRNGELVIHEKGFYYIYSQTYFRFQEEIKENTKNDKQMVQYIYKYTSYPDPILLMKSARNSCWSKDAEYGLYSIYQGGIFELKENDRIFVSVTNEHLIDMDHEASFFGAFLVG

Assays:
[1] = test system: D54MG glioblastoma multiforme cell line; assay: Cell proliferation assay (CellTiter-Glo), Aurora inhibitor combined with TRAIL; assay type: cell-based; conditions: Aurora inhibitor at 1 μM combined with TRAIL, 72 h, FIG. 1
Experimental: Cells were seeded into 96-well plates at 2,500 cells per well and allowed to adhere overnight. Compounds and TRAIL were added the following day, and cells were incubated at 37° C. for 72 h. […] Percent inhibition of viability was determined relative to cells treated with DMSO alone (0.1%). Data are representative of at least three independent experiments with each data point carried out in triplicate.

[2] = test system: glioma cell lines where DR5 was induced; assay: TRAIL-mediated apoptosis in glioma cell lines after polyploidization; assay type: cell-based; conditions: glioma cell lines where DR5 was induced following polyploidization
Experimental: To identify candidate apoptosis-sensitizing genes that could be exploited in combination with Aurora kinase inhibitors in malignant glioma, global gene expression analysis in a D54MG glioma cell derivative treated with three Aurora kinases inhibitors chosen for their distinctive selectivities was carried out: MLN8054 (4-((9-chloro-7-(2,6-difluorophenyl)-5H-pyrimidol[5,4-d][2]benzazepin-2-yl)amino)benzoic acid, Aurora-A-selective), AZD1152-HQPA (Aurora-B-selective), and VX-680 (Aurora-A/B). This analysis identified the TRAIL death receptor, DR5, as an apoptosis sensitizing gene induced selectively following inhibition of Aurora-B kinase cancer cells. In glioma cell lines where DR5 was induced following polyploidization, the sensitivity, kinetics, and magnitude of TRAIL-mediated apoptosis were enhanced.

Row | Molecule | anti-proliferative effect of combination with TRAIL [1] | sensitivity, kinetics, and magnitude of TRAIL-mediated apoptosis [2]
1 | CCN(CCO)CCCOc1ccc2c(Nc3cc(CC(=O)Nc4cccc(F)c4)[nH]n3)ncnc2c1 [AZD 1152-HQPA] | synergistic anti-proliferative effects | –
2 | O=C(O)c1ccc(Nc2ncc3c(n2)-c2ccc(Cl)cc2C(c2c(F)cccc2F)=NC3)cc1 [MLN-8054, 4-((9-chloro-7-(2,6-difluorophenyl)-5H-pyrimidol[5,4-d][2]benzazepin-2-yl)amino)benzoic acid] | synergistic anti-proliferative effects | –
3 | Cc1cc(Nc2cc(N3CCN(C)CC3)nc(Sc3ccc(NC(=O)C4CC4)cc3)n2)n[nH]1 [VX-680/MK0457] | synergistic anti-proliferative effects | –
4 | B1 | – | enhanced
